# Results as given in US7635706B2, “5HT4-antagonistic 4-(aminomethyl)-piperidine benzamides” (Janssen Pharmaceutica NV, priority 2003, dated 2009).
# Where a name gives a salt, the structure may show the parent alone.
# Molecular target: T1, h5-HT4b (Homo sapiens, UniProt Q13639)
# T1 construct: expressed in transfected cells; host or cells: HEK 293 (clone 9), membrane preparation
# Assay: 5HT4 antagonism: [3H]GR113808 binding to membranes of h5-HT4b-HEK 293 clone 9 cells
# Conditions: [3H]GR113808 0.1 nM, h5-HT4b-HEK 293 membranes, 30 min at 25° C.
# Experimental: h5-HT4b-HEK 293 clone 9 cells were cultured in 150 mm Petri dishes and washed twice with cold PBS. The cells were then scraped from the plates and suspended in 50 mM Tris-HCl buffer, pH 7.4 and harvested by centrifugation at 23,500 rpm for 10 minutes. The pellet was resuspended in 5 mM Tris-HCl, pH 7.4 and homogenized with an Ultra Turrax homogenizer. The membranes were collected by centrifugation at 30,000 rpm for 20 min, resuspended in 50 mM Tris-HCl pH 7.4 and stored at −80° C. For the experiment, assay mixtures (0.5 ml) contained 50 μl of the tritiated ligand (5-HT4 antagonist [^3H]GR113808 0.1 nM) and 0.4 ml membrane preparation (15 μg protein/ml). 50 μl of 10% DMSO was added for total binding. 50 μl of 1 μM of (+)-trans-(1-butyl-3-hydroxy4-piperidinyl)methyl 8-amino-7-chloro-2,3-dihydro-1,4-benzodioxin-5-carboxylate (a proprietary 5HT4 agonist of Janssen Pharmaceutica) was added for determination of non-specific binding.
# The [^3H]GR113808 assay buffer was 50 mM HEPES-NaOH, pH 7.4. The mixtures were incubated for 30 min at 25° C. The incubation was terminated by filtration over a Unifilter 96 GF/B presoaked in 0.1% polyethylenimine, followed by six washing steps with 50 mM HEPES-NaOH, pH 7.4.
# T1 sequence (Q13639 whole entry): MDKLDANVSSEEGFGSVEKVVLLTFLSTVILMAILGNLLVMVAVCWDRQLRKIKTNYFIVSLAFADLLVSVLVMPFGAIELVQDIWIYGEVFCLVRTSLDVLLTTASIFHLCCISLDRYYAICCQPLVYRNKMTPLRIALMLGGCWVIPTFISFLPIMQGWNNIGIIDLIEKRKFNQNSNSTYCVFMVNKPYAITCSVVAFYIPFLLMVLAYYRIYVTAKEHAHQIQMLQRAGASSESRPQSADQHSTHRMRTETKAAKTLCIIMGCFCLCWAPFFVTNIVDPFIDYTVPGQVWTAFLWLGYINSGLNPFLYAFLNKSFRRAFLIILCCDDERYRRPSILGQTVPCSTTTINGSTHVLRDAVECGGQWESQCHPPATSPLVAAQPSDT
row,SMILES,IC50
1,CCCCN1CC[C@@H](CNC(=O)c2ccc(C)c3c2OCCCO3)[C@H](O)C1 [compound 1],1.32 nM
2,COCCCN1CC[C@@H](CNC(=O)c2ccc(C)c3c2OCCCO3)[C@H](O)C1 [compound 2],2.75 nM
3,CCCCN1CC[C@@H](CNC(=O)c2cc(Cl)c(OC)c3c2OCCO3)[C@H](O)C1 [compound 7],1.74 nM
4,CCCCN1CC[C@@H](CNC(=O)c2cc(Cl)c(Cl)c3c2OCCCO3)[C@H](O)C1 [compound 16],1.23 nM
5,Cc1ccc(C(=O)NC[C@@H]2CCN(CCCC#N)C[C@H]2O)c2c1OCCCO2 [compound 94],1.86 nM
6,Cc1ccc(C(=O)NC[C@@H]2CCN(CC3CCCO3)C[C@H]2O)c2c1OCCCO2 (some centres unmarked) [compound 95],1.02 nM
7,Cc1ccc(C(=O)NC[C@@H]2CCN(CCCNS(C)(=O)=O)C[C@H]2O)c2c1OCCCO2 [compound 96],0.977 nM
8,COc1ccc(C(=O)NC[C@@H]2CCNC[C@H]2O)c2c1OCCCO2 [compound 97],56.2 nM
9,COCCCN1CC[C@@H](CNC(=O)c2ccc(OC)c3c2OCCCO3)[C@H](O)C1 [compound 98],2.63 nM
10,COc1ccc(C(=O)NC[C@@H]2CCN(CCCO)C[C@H]2O)c2c1OCCCO2 [compound 99],7.24 nM
11,CCCCN1CC[C@@H](CNC(=O)c2ccc(OC)c3c2OCCCO3)[C@H](O)C1 [compound 100],0.331 nM
12,COc1ccc(C(=O)NC[C@@H]2CCN(CCC3OCCO3)C[C@H]2O)c2c1OCCCO2 [compound 101],2.45 nM
13,CNCCCCN1CC[C@@H](CNC(=O)c2ccc(OC)c3c2OCCCO3)[C@H](O)C1 [compound 102],6.46 nM
14,COc1ccc(C(=O)NC[C@@H]2CCN(CC3CCCO3)C[C@H]2O)c2c1OCCCO2 (some centres unmarked) [compound 103],8.71 nM
15,Cc1ccc(C(=O)NC[C@@H]2CCNC[C@H]2O)c2c1OCCCO2 [compound 104],28.2 nM
16,Cc1ccc(C(=O)NC[C@@H]2CCN(CCCOc3ccc(S(N)(=O)=O)cc3)C[C@H]2O)c2c1OCCCO2 [compound 105],0.603 nM
17,Cc1ccc(C(=O)NC[C@@H]2CCN(CCCCOc3ccc(S(N)(=O)=O)cc3)C[C@H]2O)c2c1OCCCO2 [compound 106],0.813 nM
18,Cc1ccc(C(=O)NC[C@@H]2CCN(CCCCNS(C)(=O)=O)C[C@H]2O)c2c1OCCCO2 [compound 107],2.45 nM
19,Cc1ccc(C(=O)NC[C@@H]2CCN(CCOc3ccc(S(N)(=O)=O)cc3)C[C@H]2O)c2c1OCCCO2 [compound 108],1.78 nM
20,Cc1ccc(C(=O)NC[C@@H]2CCN(CCCC(N)=O)C[C@H]2O)c2c1OCCCO2 [compound 109],1.17 nM

row,SMILES,IC50
1,COCCCN1CC[C@@H](CNC(=O)c2ccc(OC)c3c2OCCCO3)[C@H](O)C1 [compound 110],3.09 nM
2,CCN1CC[C@@H](CNC(=O)c2ccc(C)c3c2OCCCO3)[C@H](O)C1 [compound 111],0.871 nM
3,COc1ccc(C(=O)NC[C@@H]2CCN(CCCC#N)C[C@H]2OC)c2c1OCCCO2 [compound 112],72.4 nM
4,COc1ccc(C(=O)NC[C@@H]2CCN(CCCO)C[C@H]2O)c2c1OCCCO2 [compound 113],3.24 nM
5,CCCCN1CC[C@@H](CNC(=O)c2ccc(OC)c3c2OCCO3)[C@H](O)C1 [compound 114],2.63 nM
6,COCCCN1CC[C@@H](CNC(=O)c2ccc(OC)c3c2OCCO3)[C@H](O)C1 [compound 115],11.7 nM
7,COc1ccc(C(=O)NC[C@@H]2CCN(CCCO)C[C@H]2O)c2c1OCCO2 [compound 116],5.25 nM
8,COc1ccc(C(=O)NC[C@@H]2CCNC[C@H]2O)c2c1OCCO2 [compound 117],107 nM
9,CNCCCCN1CC[C@@H](CNC(=O)c2ccc(OC)c3c2OCCO3)[C@H](O)C1 [compound 118],6.76 nM
10,COc1ccc(C(=O)NC[C@@H]2CCN(CCCO)C[C@H]2OC)c2c1OCCO2 [compound 119],20.4 nM
11,CCN1CC[C@@H](CNC(=O)c2ccc(OC)c3c2OCCCO3)[C@H](OC)C1 [compound 120],28.2 nM
12,COc1ccc(C(=O)NC[C@@H]2CCN(CCCCO)C[C@H]2O)c2c1OCCCO2 [compound 121],4.57 nM
13,COc1ccc(C(=O)NC[C@@H]2CCN(CCCCC(N)=O)C[C@H]2O)c2c1OCCCO2 [compound 122],4.07 nM
14,CCCCN1CC[C@@H](CNC(=O)c2ccc(OC)c3c2OCCCO3)[C@H](OC)C1 [compound 123],11 nM
15,COCCCN1CC[C@@H](CNC(=O)c2ccc(OC)c3c2OCCCO3)[C@H](OC)C1 [compound 124],24.5 nM
16,COc1ccc(C(=O)NC[C@@H]2CCN(CCCCC(N)=O)C[C@H]2O)c2c1OCCO2 [compound 125],3.24 nM
17,COc1ccc(C(=O)NC[C@@H]2CCN(CCCS(C)(=O)=O)C[C@H]2O)c2c1OCCCO2 [compound 126],7.94 nM
18,COc1ccc(C(=O)NC[C@@H]2CCN(CCOCCO)C[C@H]2O)c2c1OCCCO2 [compound 127],13.8 nM
19,COc1ccc(C(=O)NC[C@@H]2CCN(CCCC(N)=O)C[C@H]2O)c2c1OCCCO2 [compound 128],7.24 nM
20,COCCCCN1CC[C@@H](CNC(=O)c2ccc(OC)c3c2OCCCO3)[C@H](O)C1 [compound 129],3.39 nM

row,SMILES,IC50
1,COc1ccc(C(=O)NC[C@@H]2CCN(CCCCNc3nccnc3C)C[C@H]2O)c2c1OCCCO2 [compound 130],3.89 nM
2,CCCCN1CC[C@@H](CNC(=O)c2ccc(F)c3c2OCCCO3)[C@H](O)C1 [compound 131],1 nM
3,COCCCN1CC[C@@H](CNC(=O)c2ccc(F)c3c2OCCCO3)[C@H](O)C1 [compound 132],2.24 nM
4,COc1ccc(C(=O)NCC2(O)CCN(CCCC#N)CC2)c2c1OCCCO2 [compound 133],11.2 nM
5,COc1ccc(C(=O)NC[C@@H]2CCN(CCCNS(C)(=O)=O)C[C@H]2OC)c2c1OCCCO2 [compound 134],0.912 nM
6,COCCCCN1CCC(O)(CNC(=O)c2ccc(OC)c3c2OCCCO3)CC1 [compound 135],182 nM
7,CCCCN1CCC(O)(CNC(=O)c2ccc(OC)c3c2OCCCO3)CC1 [compound 136],91.2 nM
8,COc1ccc(C(=O)NC[C@H]2CCN(CCCC#N)C[C@H]2O)c2c1OCCCO2 [compound 137],155 nM
9,COc1ccc(C(=O)NC[C@@H]2CCN(CCCC#N)C[C@H]2O)c2c1OCCO2 [compound 138],6.17 nM
10,COc1ccc(C(=O)NC[C@@H]2CCN(CCCC(N)=O)C[C@H]2O)c2c1OCCO2 [compound 139],5.89 nM
11,COc1ccc(C(=O)NC[C@@H]2CCN(CCCC(N)=O)C[C@H]2OC)c2c1OCCO2 [compound 140],33.9 nM
12,CCCCN1CC[C@H](CNC(=O)c2ccc(OC)c3c2OCCCO3)[C@H](O)C1 [compound 141],214 nM
13,COCCCCN1CC[C@H](CNC(=O)c2ccc(OC)c3c2OCCCO3)[C@H](O)C1 [compound 142],162 nM
14,O=C(NC[C@@H]1CCN(CCCCO)C[C@H]1O)c1ccc(F)c2c1OCCCO2 [compound 143],1.17 nM
15,COc1ccc(C(=O)NC[C@H]2CCN(CCCC(N)=O)C[C@H]2O)c2c1OCCCO2 [compound 144],282 nM
16,CCOc1ccc(C(=O)NC[C@@H]2CCN(CCCC#N)C[C@H]2O)c2c1OCCCO2 [compound 145],8.71 nM
17,CCOc1ccc(C(=O)NC[C@@H]2CCN(CCCC(N)=O)C[C@H]2O)c2c1OCCCO2 [compound 146],5.89 nM
18,COc1ccc(C(=O)NCC2(O)CCN(CCCC(N)=O)CC2)c2c1OCCCO2 [compound 147],501 nM

# Tested on: not given
# Assay: not given
# Conditions: not given
row,SMILES,melting point
1,CNCCCCN1CC[C@@H](CNC(=O)c2ccc(C)c3c2OCCCO3)[C@H](O)C1 (as salt: salt) [compound 4],120 °C
2,CCCCN1CC[C@@H](CNC(=O)c2ccc(C)c3c2OCCCO3)[C@H](O)C1 [compound 1],127 °C
3,COCCCN1CC[C@@H](CNC(=O)c2ccc(C)c3c2OCCCO3)[C@H](O)C1 [compound 2],109 °C
4,CCCCN1CC[C@@H](CNC(=O)c2cc(Cl)c(OC)c3c2OCCO3)[C@H](O)C1 [compound 7],127 °C
5,CCCCN1CC[C@@H](CNC(=O)c2cc(Cl)c(Cl)c3c2OCCCO3)[C@H](O)C1 [compound 16],115 °C
6,Cc1ccc(C(=O)NC[C@@H]2CCN(CCCCNS(C)(=O)=O)C[C@H]2O)c2c1OCCCO2 [compound 107],124 °C
7,Cc1ccc(C(=O)NC[C@@H]2CCN(CCCC(N)=O)C[C@H]2O)c2c1OCCCO2 [compound 109],160 °C
8,COc1ccc(C(=O)NC[C@@H]2CCNC[C@H]2O)c2c1OCCO2 [compound 117],160 °C
9,COc1ccc(C(=O)NC[C@@H]2CCN(CCCC(N)=O)C[C@H]2OC)c2c1OCCO2 [compound 140],180 °C
10,CCOc1ccc(C(=O)NC[C@@H]2CCN(CCCC#N)C[C@H]2O)c2c1OCCCO2 [compound 145],131 °C
